# According to ChEMBL document CHEMBL1772962, “In vitro and in vivo evaluation of 6-aminopyrazolyl-pyridine-3-carbonitriles as JAK2 kinase inhibitors” (Bioorg Med Chem Lett, 2011):
# Activity calls are given as the source filed them. No cut-off for these calls is given here.
# How the values were obtained:
# [1] = target: T1, Tyrosine-protein kinase JAK2 (Homo sapiens, UniProt O60674); assay: Inhibition of human JAK2
# [2] = target: Receptor-type tyrosine-protein kinase FLT3 (Homo sapiens, UniProt P36888, D835Y); assay: Inhibition of human FLT3 D835Y mutant
# [3] = system: Mus musculus; assay: Inhibition of STAT5 phosphorylation in NCr mouse tansplanted with TEL-JAK2 expressing mouse BA/F3 cells at 10 mg/kg, po measured at 6 hrs; type: functional; details: BaF3, 6 h
# [4] = Oral bioavailability in Han Wistar rat at 10 mg/kg; type: ADME, organism-based; details: in vivo
# [5] = Fraction unbound in human plasma; type: ADME, cell-free
# [6] = Clearance in Han Wistar rat at 10 mg/kg, po and 3 mg/kg, iv; type: ADME, organism-based; details: in vivo
# [7] = target: T2, High affinity nerve growth factor receptor (Homo sapiens, UniProt P04629); assay: Inhibition of human truncated TrkA in human MCF10a cells by time-resolved fluorimetry; type: cell-based
# Target sequence in this assay (P04629 33-796 limits assumed): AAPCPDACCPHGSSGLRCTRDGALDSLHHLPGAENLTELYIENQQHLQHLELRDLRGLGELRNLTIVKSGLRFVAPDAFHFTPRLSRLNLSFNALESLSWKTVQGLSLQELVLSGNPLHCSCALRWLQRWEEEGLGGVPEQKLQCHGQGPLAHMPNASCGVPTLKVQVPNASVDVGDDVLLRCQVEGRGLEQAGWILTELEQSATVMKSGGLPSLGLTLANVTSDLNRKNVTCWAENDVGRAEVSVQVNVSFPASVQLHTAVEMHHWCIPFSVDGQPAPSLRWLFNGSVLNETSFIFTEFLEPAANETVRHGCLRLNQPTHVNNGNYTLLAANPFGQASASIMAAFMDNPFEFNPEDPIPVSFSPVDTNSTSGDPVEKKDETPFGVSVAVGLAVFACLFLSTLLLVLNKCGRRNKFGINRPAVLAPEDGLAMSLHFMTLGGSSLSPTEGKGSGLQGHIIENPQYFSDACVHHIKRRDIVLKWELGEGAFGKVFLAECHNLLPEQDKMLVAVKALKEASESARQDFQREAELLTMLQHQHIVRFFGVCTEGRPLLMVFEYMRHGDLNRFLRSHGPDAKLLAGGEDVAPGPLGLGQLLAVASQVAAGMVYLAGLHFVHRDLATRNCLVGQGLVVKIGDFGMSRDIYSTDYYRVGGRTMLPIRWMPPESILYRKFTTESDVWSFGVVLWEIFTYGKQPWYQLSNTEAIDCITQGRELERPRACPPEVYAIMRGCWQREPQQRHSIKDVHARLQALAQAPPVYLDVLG
# [8] = Plasma concentration in NCr mouse tansplanted with TEL-JAK2 expressing mouse BA/F3 cells at 10 mg/kg, po after 6 hrs; type: ADME, organism-based, BaF3; design: dose 10 mg/kg, route oral
# [9] = system: Mus musculus; assay: Inhibition of STAT5 phosphorylation in NCr mouse tansplanted with TEL-JAK2 expressing mouse BA/F3 cells at 10 mg/kg, po upto 2 hrs; type: functional, organism-based; design: dose 10 mg/kg; details: BaF3
# [10] = target: T3, Tyrosine-protein kinase JAK3 (Homo sapiens, UniProt P52333); assay: Inhibition of human JAK3
# T3 sequence (P52333 whole entry): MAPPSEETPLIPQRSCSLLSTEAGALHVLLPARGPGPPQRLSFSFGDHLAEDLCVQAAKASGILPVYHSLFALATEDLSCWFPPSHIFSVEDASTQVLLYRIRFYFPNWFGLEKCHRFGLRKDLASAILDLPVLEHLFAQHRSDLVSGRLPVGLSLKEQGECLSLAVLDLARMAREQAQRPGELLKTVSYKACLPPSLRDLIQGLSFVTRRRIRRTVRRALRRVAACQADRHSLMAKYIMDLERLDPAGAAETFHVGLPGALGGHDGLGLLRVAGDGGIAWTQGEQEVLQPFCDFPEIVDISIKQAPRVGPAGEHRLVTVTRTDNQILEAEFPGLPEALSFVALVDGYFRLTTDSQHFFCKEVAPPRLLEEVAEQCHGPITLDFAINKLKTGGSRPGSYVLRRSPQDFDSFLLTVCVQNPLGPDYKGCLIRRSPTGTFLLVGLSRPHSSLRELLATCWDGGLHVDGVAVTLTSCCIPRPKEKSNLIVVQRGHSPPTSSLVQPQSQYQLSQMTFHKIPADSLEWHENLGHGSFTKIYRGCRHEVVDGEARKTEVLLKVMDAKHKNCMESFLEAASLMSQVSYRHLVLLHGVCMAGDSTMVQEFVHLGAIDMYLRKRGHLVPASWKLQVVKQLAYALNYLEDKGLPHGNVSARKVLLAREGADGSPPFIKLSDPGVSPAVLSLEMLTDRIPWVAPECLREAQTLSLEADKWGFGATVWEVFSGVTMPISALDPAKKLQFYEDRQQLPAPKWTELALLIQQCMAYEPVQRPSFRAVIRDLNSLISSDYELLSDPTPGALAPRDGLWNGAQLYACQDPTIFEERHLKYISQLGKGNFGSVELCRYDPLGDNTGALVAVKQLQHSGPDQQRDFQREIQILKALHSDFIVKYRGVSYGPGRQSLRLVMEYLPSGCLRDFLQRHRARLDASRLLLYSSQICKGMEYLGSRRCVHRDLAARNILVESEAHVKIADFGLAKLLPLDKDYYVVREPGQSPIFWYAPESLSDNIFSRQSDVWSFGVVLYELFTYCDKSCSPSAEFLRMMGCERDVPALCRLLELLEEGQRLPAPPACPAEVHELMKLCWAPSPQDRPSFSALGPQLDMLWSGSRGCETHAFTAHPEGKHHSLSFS
# [11] = system: Mus musculus; assay: Inhibition of STAT5 phosphorylation in NCr mouse tansplanted with TEL-JAK2 expressing mouse BA/F3 cells at 5 mg/kg, po measured at 6 hrs; type: functional; details: BaF3, 6 h
# [12] = Half life in dog; type: ADME, organism-based, Canis lupus familiaris; details: in vivo
# [13] = target: T2, High affinity nerve growth factor receptor; assay: Inhibition of human TRKA
# Target sequence in this assay (P04629 whole entry, the tested form may be a part): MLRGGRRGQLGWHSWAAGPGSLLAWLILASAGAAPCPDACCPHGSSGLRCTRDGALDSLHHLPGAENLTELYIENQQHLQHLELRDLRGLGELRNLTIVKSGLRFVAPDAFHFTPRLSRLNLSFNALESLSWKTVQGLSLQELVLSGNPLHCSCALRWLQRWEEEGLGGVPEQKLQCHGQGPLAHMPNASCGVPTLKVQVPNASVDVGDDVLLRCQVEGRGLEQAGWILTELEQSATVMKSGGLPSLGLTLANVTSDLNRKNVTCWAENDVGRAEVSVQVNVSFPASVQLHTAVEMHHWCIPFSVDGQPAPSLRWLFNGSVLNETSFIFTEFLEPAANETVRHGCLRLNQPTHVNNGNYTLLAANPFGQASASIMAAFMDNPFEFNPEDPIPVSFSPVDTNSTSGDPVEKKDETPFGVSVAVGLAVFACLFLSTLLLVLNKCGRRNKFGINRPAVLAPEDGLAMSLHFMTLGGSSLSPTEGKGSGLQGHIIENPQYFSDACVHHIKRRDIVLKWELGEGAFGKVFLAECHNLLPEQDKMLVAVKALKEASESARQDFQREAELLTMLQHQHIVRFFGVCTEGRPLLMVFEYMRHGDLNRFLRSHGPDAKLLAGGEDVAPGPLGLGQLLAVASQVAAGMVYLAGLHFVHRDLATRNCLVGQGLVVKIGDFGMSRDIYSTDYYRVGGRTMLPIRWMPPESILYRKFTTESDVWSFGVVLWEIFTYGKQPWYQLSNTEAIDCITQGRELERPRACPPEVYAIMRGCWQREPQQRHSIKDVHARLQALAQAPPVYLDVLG
# [14] = Intrinsic clearance in Han Wistar rat microsomes at 10 mg/kg, po and 3 mg/kg, iv; type: ADME, Microsome
# [15] = Oral bioavailability in dog; type: ADME, organism-based, Canis lupus familiaris; details: in vivo
# [16] = target: Tyrosine-protein kinase Lck (Homo sapiens, UniProt P06239); assay: Inhibition of human Lck
# [17] = target: T1, Tyrosine-protein kinase JAK2; assay: Inhibition of TEL-fused JAK2-induced proliferation of mouse BA/F3 cells; type: cell-based; details: BaF3
# [18] = target: T4, Muscle, skeletal receptor tyrosine-protein kinase (Homo sapiens, UniProt O15146); assay: Inhibition of human MuSk
# T4 sequence (O15146 whole entry): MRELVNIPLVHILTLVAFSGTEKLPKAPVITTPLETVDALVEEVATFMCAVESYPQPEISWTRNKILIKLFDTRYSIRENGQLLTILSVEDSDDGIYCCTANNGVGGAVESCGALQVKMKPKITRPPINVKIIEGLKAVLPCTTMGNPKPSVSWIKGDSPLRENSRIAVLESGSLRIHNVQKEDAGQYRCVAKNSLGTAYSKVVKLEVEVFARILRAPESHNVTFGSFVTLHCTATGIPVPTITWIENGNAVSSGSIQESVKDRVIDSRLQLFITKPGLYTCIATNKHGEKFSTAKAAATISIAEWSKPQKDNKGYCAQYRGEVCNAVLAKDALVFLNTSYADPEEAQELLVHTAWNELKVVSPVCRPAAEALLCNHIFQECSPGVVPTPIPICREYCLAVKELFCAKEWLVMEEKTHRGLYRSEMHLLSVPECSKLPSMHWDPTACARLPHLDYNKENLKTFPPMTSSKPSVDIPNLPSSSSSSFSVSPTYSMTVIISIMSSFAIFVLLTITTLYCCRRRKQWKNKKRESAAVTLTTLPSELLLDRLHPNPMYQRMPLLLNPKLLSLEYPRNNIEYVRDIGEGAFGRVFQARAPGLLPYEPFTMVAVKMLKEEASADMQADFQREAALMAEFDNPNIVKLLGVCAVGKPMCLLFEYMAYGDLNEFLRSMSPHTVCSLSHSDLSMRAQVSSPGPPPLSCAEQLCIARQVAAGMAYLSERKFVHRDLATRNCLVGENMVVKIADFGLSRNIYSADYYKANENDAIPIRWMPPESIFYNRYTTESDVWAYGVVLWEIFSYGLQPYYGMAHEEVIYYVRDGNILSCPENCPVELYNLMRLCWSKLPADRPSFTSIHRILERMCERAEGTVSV
# [19] = Aqueous solubility of compound; type: physicochemical
# [20] = target: T5, Ephrin type-B receptor 2 (Homo sapiens, UniProt P29323); assay: Inhibition of human EphB2
# T5 sequence (P29323 whole entry): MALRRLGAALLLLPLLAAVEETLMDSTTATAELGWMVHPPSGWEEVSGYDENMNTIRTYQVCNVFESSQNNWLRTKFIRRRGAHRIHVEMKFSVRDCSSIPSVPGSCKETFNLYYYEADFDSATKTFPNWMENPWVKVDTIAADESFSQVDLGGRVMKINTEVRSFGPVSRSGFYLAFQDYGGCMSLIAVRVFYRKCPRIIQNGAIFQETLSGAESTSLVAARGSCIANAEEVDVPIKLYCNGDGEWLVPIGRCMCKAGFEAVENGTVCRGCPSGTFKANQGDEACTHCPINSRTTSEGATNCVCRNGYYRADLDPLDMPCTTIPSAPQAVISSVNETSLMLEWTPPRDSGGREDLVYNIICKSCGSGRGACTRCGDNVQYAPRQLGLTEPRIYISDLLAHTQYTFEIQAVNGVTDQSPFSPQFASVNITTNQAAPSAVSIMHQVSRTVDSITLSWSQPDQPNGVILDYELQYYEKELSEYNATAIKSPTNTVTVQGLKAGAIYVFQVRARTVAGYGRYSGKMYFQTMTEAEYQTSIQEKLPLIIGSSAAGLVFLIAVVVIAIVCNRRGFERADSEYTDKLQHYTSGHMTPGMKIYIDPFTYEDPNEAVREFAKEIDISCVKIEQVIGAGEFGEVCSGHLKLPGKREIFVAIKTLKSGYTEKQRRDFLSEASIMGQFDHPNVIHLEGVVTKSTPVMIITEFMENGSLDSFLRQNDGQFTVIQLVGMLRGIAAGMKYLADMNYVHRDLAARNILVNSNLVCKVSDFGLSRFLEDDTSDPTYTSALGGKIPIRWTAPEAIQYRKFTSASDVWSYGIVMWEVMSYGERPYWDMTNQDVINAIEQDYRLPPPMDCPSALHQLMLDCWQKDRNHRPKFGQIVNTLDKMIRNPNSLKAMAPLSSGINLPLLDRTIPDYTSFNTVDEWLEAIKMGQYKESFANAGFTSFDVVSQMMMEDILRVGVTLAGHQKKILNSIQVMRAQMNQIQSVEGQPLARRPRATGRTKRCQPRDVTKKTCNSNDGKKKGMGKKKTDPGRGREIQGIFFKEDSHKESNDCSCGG
# [21] = system: Mus musculus; assay: Inhibition of STAT5 phosphorylation in NCr mouse tansplanted with TEL-JAK2 expressing mouse BA/F3 cells at 2.5 mg/kg, po upto 2 hrs; type: functional, organism-based; design: dose 2.5 mg/kg; details: BaF3
# [22] = target: T6, Tyrosine-protein kinase JAK3 (Homo sapiens) (UniProt P52333); assay: Inhibition of TEL-fused JAK3-induced proliferative activity against mouse BA/F3 cells; type: cell-based; details: BaF3
# T6 sequence (whole entry): T3 sequence (P52333 whole entry)
# [23] = Plasma concentration in NCr mouse tansplanted with TEL-JAK2 expressing mouse BA/F3 cells at 10 mg/kg, po after 2 hrs; type: ADME, organism-based, BaF3; design: dose 10 mg/kg, route oral
# [24] = Clearance in dog; type: ADME, organism-based, Canis lupus familiaris; details: in vivo
# [25] = system: Mus musculus; assay: Inhibition of STAT5 phosphorylation in NCr mouse tansplanted with TEL-JAK2 expressing mouse BA/F3 cells at 5 mg/kg, po upto 2 hrs; type: functional, organism-based; design: dose 5 mg/kg; details: BaF3
# [26] = target: T3, Tyrosine-protein kinase JAK3; assay: Inhibition of JAK3 after 60 min
# [27] = Volume of distribution at steady state in Han Wistar rat at 10 mg/kg, po and 3 mg/kg, iv; type: ADME, organism-based; details: in vivo, read-out: Vdss
# [28] = target: T1, Tyrosine-protein kinase JAK2; assay: Inhibition of JAK2 after 60 min
# [29] = Half life in Han Wistar rat at 10 mg/kg, po and 3 mg/kg, iv; type: ADME, organism-based; details: in vivo
# [30] = Free drug level in plasma of NCr mouse tansplanted with TEL-JAK2 expressing mouse BA/F3 cells at 10 mg/kg, po after 6 hrs; type: ADME, organism-based, BaF3; design: dose 10 mg/kg, route oral; details: in vivo
# [31] = Growth inhibition of human SET2 cells expressing JAK2 V617F mutant after 48 hrs by alamar blue assay; type: functional; details: SET-2, 48 h
# T1 sequence (O60674 whole entry): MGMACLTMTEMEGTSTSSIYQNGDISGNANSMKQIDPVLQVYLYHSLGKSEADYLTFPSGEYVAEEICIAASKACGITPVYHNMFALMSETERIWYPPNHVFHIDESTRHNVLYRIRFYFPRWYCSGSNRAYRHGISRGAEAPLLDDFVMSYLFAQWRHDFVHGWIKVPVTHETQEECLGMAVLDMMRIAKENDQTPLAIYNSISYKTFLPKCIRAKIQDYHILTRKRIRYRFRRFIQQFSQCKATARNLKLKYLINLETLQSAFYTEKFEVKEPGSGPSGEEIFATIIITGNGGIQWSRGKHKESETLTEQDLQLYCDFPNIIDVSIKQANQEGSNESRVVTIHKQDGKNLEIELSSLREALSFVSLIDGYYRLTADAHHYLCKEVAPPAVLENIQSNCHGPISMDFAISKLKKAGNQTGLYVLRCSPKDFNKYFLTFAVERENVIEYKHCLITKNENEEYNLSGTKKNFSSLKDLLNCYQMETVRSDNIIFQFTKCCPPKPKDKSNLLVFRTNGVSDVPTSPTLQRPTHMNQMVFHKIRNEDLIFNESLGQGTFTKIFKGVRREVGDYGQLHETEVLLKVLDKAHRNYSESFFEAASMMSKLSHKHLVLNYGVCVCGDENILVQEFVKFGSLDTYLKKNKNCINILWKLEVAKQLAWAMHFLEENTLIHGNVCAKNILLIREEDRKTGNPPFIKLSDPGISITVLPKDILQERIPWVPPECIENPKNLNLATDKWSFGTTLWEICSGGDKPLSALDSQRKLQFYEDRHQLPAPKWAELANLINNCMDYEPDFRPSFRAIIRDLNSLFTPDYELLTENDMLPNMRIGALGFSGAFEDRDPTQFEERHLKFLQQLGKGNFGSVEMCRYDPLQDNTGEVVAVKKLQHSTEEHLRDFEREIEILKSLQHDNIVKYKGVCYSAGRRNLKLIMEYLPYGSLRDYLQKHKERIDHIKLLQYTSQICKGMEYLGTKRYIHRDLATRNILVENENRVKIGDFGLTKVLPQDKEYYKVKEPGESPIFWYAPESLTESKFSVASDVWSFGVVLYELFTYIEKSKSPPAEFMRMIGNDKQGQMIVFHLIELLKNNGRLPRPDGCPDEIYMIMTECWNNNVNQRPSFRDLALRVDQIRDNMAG
# Chain of Tyrosine-protein kinase Lck (P06239 whole entry, the tested form may be a part): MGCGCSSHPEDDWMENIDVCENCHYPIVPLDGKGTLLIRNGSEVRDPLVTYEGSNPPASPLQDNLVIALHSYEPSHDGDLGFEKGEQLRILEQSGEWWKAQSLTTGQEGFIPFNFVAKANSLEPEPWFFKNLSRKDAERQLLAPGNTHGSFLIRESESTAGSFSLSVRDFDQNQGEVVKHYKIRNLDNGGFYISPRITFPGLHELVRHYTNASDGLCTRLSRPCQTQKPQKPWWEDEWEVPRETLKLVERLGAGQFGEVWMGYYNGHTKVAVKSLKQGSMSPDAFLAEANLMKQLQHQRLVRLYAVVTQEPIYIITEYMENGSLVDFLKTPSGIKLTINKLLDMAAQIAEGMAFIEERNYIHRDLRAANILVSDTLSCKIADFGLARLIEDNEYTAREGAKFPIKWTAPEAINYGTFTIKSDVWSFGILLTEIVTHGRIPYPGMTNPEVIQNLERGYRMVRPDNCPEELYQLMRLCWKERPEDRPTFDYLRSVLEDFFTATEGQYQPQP
bioavailability [4] [%],clearance [6] [mL/min/kg],microsomal CLint [14] [µL/min/mg],GI50 [17] [nM],solubility [19] [µM],GI50 [22] [nM],IC50 [26] [nM],Vd [27] [L/kg],IC50 [28] [nM],half-life [29] [h],Structure (SMILES),further results
39,4.8,5,36,303,1300,7,0.84,< 3,2.2,Cc1cc(Nc2nc(N[C@@H](C)c3ccc(F)cn3)c(C#N)cc2F)n[nH]1,IC50 [1]: < 1 nM; IC50 [2]: 82 nM; inhibition in vivo at 10 mg/kg [3]: 54%; fraction unbound [5]: 0.053; IC50 [7]: 276 nM; concentration at 6 h [8]: 328 ng/mL; inhibition [9]: Active; IC50 [10]: 15 nM; inhibition in vivo at 5 mg/kg [11]: 54%; half-life [12]: 3.6 h; IC50 [13]: 3 nM; bioavailability [15]: 100%; IC50 [16]: 215 nM; IC50 [18]: 224 nM; IC50 [20]: > 10000 nM; inhibition [21]: Active; concentration at 2 h [23]: 1100 ng/mL; clearance [24]: 7.4 mL/min/kg; inhibition [25]: Active; Cp(f) [30]: 49 nM
–,–,–,–,–,–,1740,–,688,–,CC(C)Oc1cc(Nc2nc(N[C@@H](C)c3ccc(F)cc3)c(C#N)cc2F)n[nH]1,–
47,2.3,5,40,100,430,21,0.52,< 3,2.7,Cc1cc(Nc2nc(N[C@@H](C)c3ccc(F)cn3)c(C#N)cc2Cl)n[nH]1,–
–,–,–,170,–,1000,183,–,3,–,C[C@H](Nc1nc(Nc2cc(C3CC3)[nH]n2)c(F)cc1C#N)c1ccc(F)cc1,–
44,7.5,17,24,13,350,9,2.6,< 3,5.7,Cc1cc(Nc2nc(N[C@@H](C)c3ccc(F)cc3)c(C#N)cc2F)n[nH]1,GI50 [31]: 33 nM
